Experimental data as given in ChEMBL document CHEMBL1201862, “PubChem BioAssay data set” (2004).
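96-well plates; 48 h exposure; 5 concentrations. Endpoints by linear interpolation between flanking doses. Not reached: highest tested concentration assigned. GI50 = concentration required for 50% inhibition of growth.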 The source made the active and inactive calls. No stated cut-off is given here; in the data, active = GI50 up to about 1.1 µM and inactive = higher.

Columns and labels:
Experiment in all cases: growth of human tumour cells (NCI), 48 h
MCF7 = system: MCF7
NCI-H460 = system: NCI-H460
CCRF-CEM = system: CCRF-CEM
K562 = system: K562
OVCAR-8 = system: OVCAR-8
A498 = system: A498
T47D = system: T47D
SK-OV-3 = system: SK-OV-3
MOLT-4 = system: MOLT-4
DU-145 = system: DU-145
NCI-H23 = system: NCI-H23
LOX IMVI = system: LOX IMVI
UACC-62 = system: UACC-62
HOP-92 = system: HOP-92
NCI-H522 = system: NCI-H522
SNB-19 = system: SNB-19
SK-MEL-5 = system: SK-MEL-5
PC-3 = system: PC-3
SNB-75 = system: SNB-75
UO-31 = system: UO-31

| SMILES | GI50 (MCF7) | GI50 (NCI-H460) | GI50 (CCRF-CEM) | GI50 (K562) | GI50 (OVCAR-8) | GI50 (A498) | GI50 (T47D) | GI50 (SK-OV-3) | GI50 (MOLT-4) | GI50 (DU-145) | GI50 (NCI-H23) | GI50 (LOX IMVI) | GI50 (UACC-62) | GI50 (HOP-92) | GI50 (NCI-H522) | GI50 (SNB-19) | GI50 (SK-MEL-5) | GI50 (PC-3) | GI50 (SNB-75) | GI50 (UO-31) |
| --- | --- | --- | --- | --- | --- | --- | --- | --- | --- | --- | --- | --- | --- | --- | --- | --- | --- | --- | --- | --- |
| CC1CC[C@@]2(OC1)OC1C[C@H]3[C@@H]4CC=C5CC(OC6OC(CO)C(OC7OC(CO)C(O)C(OC8OCC(O)C(O)C8O)C7OC7OC(CO)C(OC8OC(C)C(OC9OC(C)C(O)C(O)C9O)C(O)C8O)C(O)C7O)C(O)C6O)CCC5(C)[C@H]4CCC3(C)C1[C@@H]2C (stereo partly drawn) | 14.1 µM (inactive) | 9.93 µM (inactive) | 10.4 µM (inactive) | 8.05 µM (inactive) | 9.95 µM (inactive) | 2.02 µM (inactive) | 9.29 µM (inactive) | 9.23 µM (inactive) | 11.6 µM (inactive) | 7.87 µM (inactive) | 8.97 µM (inactive) | 8.99 µM (inactive) | 9.71 µM (inactive) | 7.46 µM (inactive) | 8.87 µM (inactive) | 5.61 µM (inactive) | 8.69 µM (inactive) | 5.32 µM (inactive) | – | – |
| Oc1ccc(/C=C/c2cccc(/C=C/c3ccc(O)c(O)c3)n2)cc1O | 10.2 µM (inactive) | 5.57 µM (inactive) | 2.75 µM (inactive) | 3.86 µM (inactive) | 6.81 µM (inactive) | 12.9 µM (inactive) | 3.4 µM (inactive) | 16.1 µM (inactive) | 3.27 µM (inactive) | 3.77 µM (inactive) | – | 5.14 µM (inactive) | 6.12 µM (inactive) | 11.2 µM (inactive) | – | 6.04 µM (inactive) | 4.72 µM (inactive) | 17.5 µM (inactive) | 6.01 µM (inactive) | 3.85 µM (inactive) |
| COc1ccc(Cc2nc3cc([N+](=O)[O-])ccc3n2C[C@@H]2CCCN3CCCCC23)cc1 (stereo partly drawn) | 27.2 µM (inactive) | 28.2 µM (inactive) | 11.2 µM (inactive) | 19.8 µM (inactive) | 45.7 µM (inactive) | 16.6 µM (inactive) | 33.1 µM (inactive) | 20.2 µM (inactive) | 18.6 µM (inactive) | 37.9 µM (inactive) | 29.8 µM (inactive) | 16.7 µM (inactive) | 17.3 µM (inactive) | 12.8 µM (inactive) | – | 19.8 µM (inactive) | 14.8 µM (inactive) | 27.1 µM (inactive) | 40.7 µM (inactive) | 8.3 µM (inactive) |
| CC(C)(C)OC(=O)NCC(C#N)CNC(=O)OC(C)(C)C | > 100 µM (inactive) | > 100 µM (inactive) | > 100 µM (inactive) | > 100 µM (inactive) | > 100 µM (inactive) | > 100 µM (inactive) | > 100 µM (inactive) | > 100 µM (inactive) | > 100 µM (inactive) | > 100 µM (inactive) | > 100 µM (inactive) | > 100 µM (inactive) | > 100 µM (inactive) | > 100 µM (inactive) | > 100 µM (inactive) | > 100 µM (inactive) | > 100 µM (inactive) | > 100 µM (inactive) | – | > 100 µM (inactive) |
| CC12CC(OC(=O)[C@]1(C)O)[C@@H]([C@]1(O)CC[C@H]3[C@@H]4C[C@H]5O[C@]56[C@@H](O)C=CC(=O)[C@]6(C)[C@H]4CC[C@@]31C)C2 (stereo partly drawn) | 3.08 µM (inactive) | 12.3 µM (inactive) | 1.33 µM (inactive) | 3.17 µM (inactive) | 3.37 µM (inactive) | 13.8 µM (inactive) | 8.02 µM (inactive) | 34.1 µM (inactive) | 2.54 µM (inactive) | 22.2 µM (inactive) | 4.08 µM (inactive) | 4.42 µM (inactive) | 14.6 µM (inactive) | 2.92 µM (inactive) | 1.16 µM (inactive) | 40.1 µM (inactive) | 0.785 µM (active) | 12.1 µM (inactive) | – | 4.32 µM (inactive) |
